# Measurements from patent publication US9957566B2, “Screening method” (THE UNIVERSITY OF BIRMINGHAM, priority 2009, dated 2018).
# Experiments:
# peripheral lymphocytes [1] = experiment: Lymphocyte culture with or without rapamycin, LDH cytotoxicity assay for number of cell divisions; assay type: cell-based, human; settings: 100 ng/ml rapamycin, 24 hours
# Protocol: (§1) Peripheral lymphocytes (thawed from storage as appropriate) were cultured in a growth medium of RPMI 1640 supplemented with 15% FCS (heat inactivated), plus 2% I-glutamine and 1% penicillin/streptamycin, in the presence of 2.5% phytohaemagglutinin (PHA) for 48 hours at 37° C., 5% CO2, to reach exponential growth. Cultures were prepared in a 96 well plate format, with 6 or 8 wells allocated to each patient (test subject). One single plate could therefore hold eleven sets of patient samples, plus one set of standard samples.
# (§2) Once exponential growth of the cells was achieved, the lymphocyte cultures were treated with either growth medium (as above) alone, or the same growth medium plus 100 ng/ml rapamycin, in triplicate/quadruplicate for each patient.
# (§3) Cell cultures were harvested after 24 hours. Samples intended for cytotoxicity testing (LDH assay) were frozen at −20° C., whereas samples intended for analysis by flow cytometry were fixed in 85% cold ethanol.
# Measurement of cell numbers in the cell cultures prepared in 3) was carried out by LDH cytotoxicity assay using the CytoTox 96® Non-Radioactive Cytotoxicity Assay Kit from Promega, according to the instructions supplied by the manufacturer.
# The assays were set up in 96-well plate format, using 30 μl of lymphocyte culture and 50 μl of LDH substrate mix per well (substrate mix is a component of the CytoTox kit, diluted prior to use). Patient samples cultured with or without rapamycin were each tested in triplicate. The assay plates also included diluted standards of LDH positive control (serial dilutions of LDH positive control in lymphocyte culture medium; triplicate samples of 30 μl at each of 1:2500, 1:5000, 1:10,000, 1:20,000, 1:40,000, 1:80,000 and 1:160,000 dilution), to allow construction of a calibration curve.
# The reactions were then stopped by adding 50 μl of cold Stop Solution (component of the CytoTox kit) to each well. Optical density was then read at 490 nm.
# (§4) The LDH cytotoxicity assay gave a value for total cell numbers in each lymphocyte culture (with or without rapamycin). […]
# peripheral lymphocytes [2] = experiment: Lymphocyte culture with or without rapamycin, flow cytometry cell cycle analysis (TG1); assay type: cell-based, human; settings: 100 ng/ml rapamycin, 24 hours
# Protocol: as §1, §2, §3
# 96-well plate lymphocytes cultures (with or without rapamycin) fixed in ethanol (end of step 3) were spun at 400 g for 10 minutes at RT with no breaks. Supernatants were removed and the cell pellets resuspended in 0.300 ml ice-cold PBS/well. The plates were spun again at 400 g for 10 minutes at RT with no breaks. Supernatants were again removed and the cell pellets re-suspended in 0.080 ml of propidium iodide (P1) staining solution/well.
# The flow cytometer (FacsCalibur BD) was set up to distinguish well between the G1 and G2 peaks (at least 200 units apart).
# Using as a Marker measure the PI reading equivalent to the G1 peak and the G2 peak the parameter X was calculated based on the relation: X=(G2peak−G1peak)/4
# as §4
# [formula] fG1 is the proportion of cells in the G1 phase of the cell cycle as measured by flow cytometry.
# Finally, TG1 values calculated for rapamycin treated and untreated lymphocyte cultures from the same test subject were compared.
# [3] = subjects with 0 ApoE4 alleles (n=54)
# [4] = subjects with 1 ApoE4 allele (n=38)
# [5] = subjects with 2 ApoE4 alleles (n=8)
structure (smiles),measurement,setting,value
"CO[C@H]1C[C@@H]2CC[C@@H](C)[C@@](O)(O2)C(=O)C(=O)N2CCCC[C@H]2C(=O)O[C@H]([C@H](C)C[C@@H]2CC[C@@H](O)[C@H](OC)C2)CC(=O)[C@H](C)/C=C(\C)[C@@H](O)[C@@H](OC)C(=O)[C@H](C)C[C@H](C)/C=C/C=C/C=C/1C [Rapamycin, rapamycin]",n rapa/n = change in the number of cell divisions under the effect of Rapamycin relative to control cultures from the same individual (mean),peripheral lymphocytes [1]; [3],1.3044
same,n rapa/n = change in the number of cell divisions under the effect of Rapamycin relative to control cultures from the same individual (mean),peripheral lymphocytes [1]; [4],1.3775
same,n rapa/n = change in the number of cell divisions under the effect of Rapamycin relative to control cultures from the same individual (mean),peripheral lymphocytes [1]; [5],1.4624
same,TG1 Rapa = length of the G1 time under the effect of Rapamycin (mean),peripheral lymphocytes [2]; [3],13.9944
same,TG1 Rapa = length of the G1 time under the effect of Rapamycin (mean),peripheral lymphocytes [2]; [4],13.7038
same,TG1 Rapa = length of the G1 time under the effect of Rapamycin (mean),peripheral lymphocytes [2]; [5],13.1059
